The target in this experiment is T1, nnLuz (Neonothopanus nambi, UniProt A0A3G9JYH7, I3S/N4T/F11L/I63T/T99P/T192S/A199P).
T1 construct: gene luz; HiBiT-tag fusion, expressed in yeast Pichia pastoris GS115, clarified lysate; codon-optimized synthetic gene
In words: luminescence, Michaelis-Menten fit, HiBiT-normalized. In kind it is biochemical. As to conditions: yeast lysate; 0.2 M sodium phosphate, 0.5 M Na2SO4, pH 8; Fln 0.0244-50 uM; DDM, thioglycolic acid; variant nnLuz_v4. (In general: With HiBiT, luminescence reflects the tagged protein that the partner subunit can reach.)

T1 sequence (A0A3G9JYH7 whole entry I3S/N4T/F11L/I63T/T99P/T192S/A199P, the tested form may be a part): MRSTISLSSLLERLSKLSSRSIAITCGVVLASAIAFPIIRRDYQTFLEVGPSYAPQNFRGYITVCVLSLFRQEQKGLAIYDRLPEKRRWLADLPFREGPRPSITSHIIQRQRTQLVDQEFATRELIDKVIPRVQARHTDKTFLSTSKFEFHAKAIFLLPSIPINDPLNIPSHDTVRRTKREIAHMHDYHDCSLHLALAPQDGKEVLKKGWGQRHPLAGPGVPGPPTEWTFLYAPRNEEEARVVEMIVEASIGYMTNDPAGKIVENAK

In the case of `O=c1oc(/C=C/c2ccc(O)c(O)c2)cc(O)c1O` [Fln, fungal luciferin], the KM result is “Yeast strains expressing nnLuz_wt/v4–HiBIT fusions were inoculated into YPD medium”.

(Values after PMC10927554, “An improved pathway for autonomous bioluminescence imaging in eukaryotes” (Nature Methods, 2024).)
